Measured values reported in US20110044991A1, “METHODS AND COMPOSITIONS FOR TREATING LYMPHOMA AND MYELOMA” (IRM LLC, priority 2006, published 2011).
Like-named read-outs stand apart in the source and are kept apart here.

Assays:
[1] = test system: Cdkn2a−/− lymphoma cells; assay: Luciferase assay of luciferased lymphoma cells on stromal layer; type: cell-based, mouse; conditions: for Response rate to cyclopamine treatment (responsive/tested cultures) / Response rate to cyclopamine treatment: Ink4a/Arf-/- lymphomas; for Response rate to cyclopamine treatment: >80% growth inhibition at 5 μM
Procedure: (§1) For Shh pathway inhibition on stroma, 6200 stroma cells were seeded per 96-well. After 24 hours 20,000 luciferased lymphoma cells were seeded on the stroma cells and 2 hours later compound or DMSO was added. Luciferase assay was performed with Bright-glow reagent as described. To generate cells overexpressing Hh pathway members, lymphoma cells were infected with Smo, Smo 535, Smo 562, Gli1 and Fused-pMSCV IRES GFP constructs and then sorted for GFP positive cells.
(§2) In order to investigate whether the Hh signalling pathway does indeed contribute to the survival and proliferation of lymphoma cells growing on an intact stromal layer, lymphoma cells were luciferased using a retrovirus expressing a puromycin/Luc fusion cassette. 2×10E4 lymphoma cells constitutively expressing luciferase were added to each 96-well containing a stromal layer (not expressing luciferase) isolated from Cdkn2a^−/− mice. A total of 34 individual Eμ-Myc-lymphomas and 8 Cdkn2a-lymphomas were tested. A luciferase assay was performed as a readout for cell viability and proliferation and results were also documented by light microscopy.

[2] = test system: Eμ-Myc lymphoma cells; assay: Shh-induced proliferation of lymphoma cells without stromal layer, Alamar Blue assay; type: cell-based, mouse; conditions: Shh 10 μM over 48 h; 5E1 10 μg/ml, cyclopamine 5 μM
Procedure: Luminescence was measured after 0 h, 24 h and 48 h after seeding of 2×10E4 luciferased lymphoma cells on the stroma cells; and F: RT-PCR analysis of transcripts from Hh pathway members and targets in spleen lymphocytes and different lymphoma cell lines.
Cell culture experiments: Lymphoma cells were infected with a retrovirus containing a pMSCV IRES puro-luc sequence and selected for 7 days with puromycin on puromycin-resistant Cdkn2a−/− stroma. […] Both were dissolved as x 1,000 stocks in DMSO. SCF was obtained from RDI, and all other cytokines were obtained from R&D systems. 5E1 anti-ShhN monoclonal antibody was obtained from the developmental hybridoma bank and was used at a concentration of 10 μg/ml. For cytokine stimulation and Shh inhibition in supernatant lymphoma cells were seeded into 96-well plates at a density of 20,000 cells per well and mitochondrial activity of viable cells was measured with an Alamar Blue Assay as described.

[3] = test system: lymphoma cells (Ly9)
Procedure: (§3) D: injection of 1 Mio luciferased lymphoma cells in C57B16 mice.
Immunohistochemistry: Single colour DAB-immunoperoxidase staining was performed as described. Antibodies were obtained from Santa Cruz Biotechnologies (for Shh antibody, N-19), NeoMarkers (for Ki67 antibody) and Promega (for PARP antibody).
(§4) Mouse experiments: Black6 mice between 6 and 8 weeks of age were injected with 1 Mio luciferased lymphoma cells. […] Bioluminescence was measured with injection of […].
We next wished to determine the importance of Hh signalling in established lymphomas.

[4] = test system: Myc-Ly6 cells overexpressing Smo, Smo535, Smo562, Gli1 or Fused; assay: Luciferase assay with lymphoma cells overexpressing Hh pathway members on stromal layer; type: cell-based, mouse; conditions: for IC50: Mus musculus, 48 h
Procedure: as §1

[5] = test system: Myc lymphoma cells (p53−/−, Cdkn2a−/−, Bcl2+, Bax−/−, Caspase3−/−); conditions: for apoptosis: 5 μM, 48 hours
Source text: Genetically altered mice and culture of primary cells: Eμ-Myc mice (Adams et al., Nature 318: 533-53824, 1985), Cdkna^−/− mice (Serrano et al., Cell. 85:27-3725, 1996), Bax^−/− mice (The Jackson Laboratory, Bar Harbor, Me.), Caspase3^−/− mice (The Jackson laboratory), p53^−/− mice (The Jackson Laboratory) and Bcl2 tg mice (The Jackson laboratory) were maintained and genotyped as described. Eμ-Myc mice and Cdkn2a−/− mice were monitored for signs of disease including development of visible lymphomas or weight loss from more than 15%. Mice with terminal disease were sacrificed, bone marrow, spleen and lymph nodes were extracted and lymphoma cells were propagated under Witlock/Witte culture conditions. For maintained growth cells were transferred on bone marrow stroma from Cdkn2a−/− mice after 2-3 weeks of culture. For generation of lymphomas with defined genetic background, bone marrow from p53−/− mice, Caspase3−/− mice, Bax−/− mice, Cdkn2a−/− mice and Bcl2 tg mice was extracted and pMSCV c-Myc IRES GFP was overexpressed. Propagation of transformed lymphocytes was performed under Witlick/Witte culture conditions and lymphomas were maintained on stroma from Cdkn2a−/− mice.
To better understand which specific pathways are involved in the regulation of growth and survival through Hh signalling in lymphoma cells, lymphoma cell cultures were generated in multiple different genetic backgrounds in order to modify either apoptotic or failsafe pathways. Bone marrow extracted from wt C57BL/6, Bcl2 transgenic, Bax^−/− Caspase-3^−/−, CDKN2a^−/− and p53^−/− mice was infected with pMSCV-Myc-GFP and transformed lymphocyte cultures were obtained using Whitlock/Witte culture conditions in the absence of IL-7. […] Similar to cultures established from primary lymphomas, lymphocytes transformed by retroviral transduction were transferred to bone marrow stroma of CDKN2a^−/− mice for longer term culture.

[6] = test system: Eμ-Myc lymphoma cells; assay: Luciferased lymphoma cells injected into C57BL/6 mice, treatment from day 2; type: in vivo, mouse
Procedure: as §3, §4
In order to verify the importance of the Hh pathway for lymphoma growth and expansion in mice, we injected 1e6 lymphoma cells expressing luciferase into syngeneic C57BL/6 mice. […] Luciferase levels were measured by bioluminescence imaging twice a week.

[7] = test system: lymphoma cells; assay: Cell cycle distribution of gated viable cells; type: cell-based, mouse; conditions: after 12 hours of treatment; 20.4% before
[8] = test system: Eμ-Myc lymphoma cells; assay: Luciferase assay and light microscopy of luciferased lymphoma cells on stromal layer; type: cell-based, mouse; conditions: for Response rate to cyclopamine treatment (responsive/tested cultures) / Response rate to cyclopamine treatment: Myc-lymphomas; for Response rate to cyclopamine treatment: >80% growth inhibition at 5 μM
Procedure: as §1, §2

[9] = 50 mg/kg twice a day for 3 days, vs control group

## CC1=C2C[C@H]3[C@@H](CC=C4C[C@@H](O)CC[C@@]43C)[C@@H]2CC[C@]12O[C@@H]1C[C@H](C)CN[C@H]1[C@H]2C [cyclopamine]
[1]; plasmacytoma
  Response rate to cyclopamine treatment (responsive/tested cultures): (2/4)
  Response rate to cyclopamine treatment: 50%
[1]; plasmoblastoma
  Response rate to cyclopamine treatment (responsive/tested cultures): (2/4)
  Response rate to cyclopamine treatment: 50%
[1]; all lymphomas from CDKN2a−/− mice, sensitivity = greater than 80% growth inhibition at 5 μM
  lymphomas sensitive to Hh pathway inhibition: 50%
[2]
  inhibition of Shh-induced proliferation: inhibited
[3]; [9]
  infiltration of the spleen: markedly decreased
  lymphoma mass in lymph nodes and other organs: reduced lymphoma mass
[3]; after 3 days of treatment
  PARP staining of spleen: apoptosis induction
  histopathology of spleens (H&E): reduction of lymphoma cells in the spleen
[3]; after 3 days of treatment, compared to vehicle group
  Ki67 staining of spleen: strong decrease of high proliferative cells
[3]; three-day treatment, compared to vehicle control group
  decrease of spleen weight: ~50%
[4]; cyclopamine sensitive lymphoma cell lines without overexpression
  IC50: 1 µM
[4]; overexpression of Fused
  IC50: > 10 µM
  apoptosis induction by cyclopamine: nearly complete inhibition of apoptosis induction
[4]; overexpression of Gli1
  IC50: > 10 µM
  response of Myc-Ly6 to cyclopamine treatment: partial resistance
[4]; overexpression of Smo A562G
  IC50: 4.5 µM
[4]; overexpression of Smo W535L
  IC50: 3.5 µM
[4]; overexpression of Smo wt
  IC50: 3 µM
[5]; Myc/Bax−/− cells
  cyclopamine induced apoptosis: partial resistance
[5]; Myc/Caspase 3−/− cells
  cyclopamine induced apoptosis: partial resistance
[5]; Myc/Cdkn2a−/− lymphoma cells
  apoptosis: induced apoptosis
[5]; Myc/p53−/− lymphoma cells
  apoptosis: induced apoptosis
[6]; 25 mg/kg/day s.c., max 21 days, control group 16 days
  median survival: 20 days
[6]; 50 and 100 mg/kg/day s.c. from day 2, twelve days post-injection
  signs of disease (bioluminescence imaging): only minimal signs of disease
[6]; lymphoma with in vitro resistance and overexpression of Gli3, 100 mg/kg/day
  response (survival curves): only minimal response
[6]; two additional lymphoma cells (1 plasmoblastoma and 1 B-cell lymphoma), similar conditions
  response in vivo: responsive in vivo
[7]
  G2/M phase of remaining viable cells: 13.3%
[8]; Mus musculus, 48 h, read-out: IC50 (concentration needed for 50% of maximal inhibition)
  IC50: 0.5 to 2 µM
[8]; Myc-Ly4, 5 μM, within 48 h
  clearance of lymphoma cells from the stromal layer: complete clearance
[8]; B-cell lymphoma
  Response rate to cyclopamine treatment (responsive/tested cultures): 8/10 and (8/10)
[8]; mixed lymphomas
  Response rate to cyclopamine treatment (responsive/tested cultures): 1/2
  Response rate to cyclopamine treatment: 50%
[8]; plasmacytoma
  Response rate to cyclopamine treatment (responsive/tested cultures): 6/9
  Response rate to cyclopamine treatment: 66%
[8]; plasmoblastoma
  Response rate to cyclopamine treatment (responsive/tested cultures): 8/10 and (8/10)
  Response rate to cyclopamine treatment: 80%
[8]; all Eμ-Myc-lymphomas, sensitivity = greater than 80% growth inhibition at 5 μM
  lymphomas sensitive to Hh pathway inhibition: 74.1%
